The target of the assay is T1, human recombinant CRF-1 receptor (Homo sapiens, UniProt P34998).
T1 construct: expressed in transfected cells; host or cells: CHO cells (G418-selected)
T1 sequence (P34998 24-415): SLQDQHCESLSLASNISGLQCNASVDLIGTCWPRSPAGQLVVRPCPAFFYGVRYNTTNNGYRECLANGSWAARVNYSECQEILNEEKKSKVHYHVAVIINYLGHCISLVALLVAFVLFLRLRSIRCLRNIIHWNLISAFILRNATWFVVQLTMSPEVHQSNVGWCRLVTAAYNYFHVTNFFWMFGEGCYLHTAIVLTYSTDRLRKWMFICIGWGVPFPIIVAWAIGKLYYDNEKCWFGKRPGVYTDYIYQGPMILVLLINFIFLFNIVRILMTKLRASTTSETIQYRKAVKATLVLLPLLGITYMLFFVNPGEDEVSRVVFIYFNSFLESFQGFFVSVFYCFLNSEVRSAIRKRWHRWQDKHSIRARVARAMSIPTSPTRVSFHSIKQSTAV
The experiment in a line: CRF-1 receptor antagonism, HTRF cAMP assay in CHO cells in the presence of 1 nM CRF. The assay is classed as cell-based. Conditions: CHO cells expressing human recombinant CRF-1; inhibition of the effect of 1 nM CRF on cAMP. Here is the method: The CRF-1 or CRF-2α receptor antagonistic activity of the agents of the invention has been determined in vitro in the following assay:
Chinese hamster ovary (CHO) cells expressing either the human recombinant CRF-1 or CRF-2a receptors (Chen et al., Proc Natl Acad Sci USA 90, 8967-8971, 1993; Liaw et al., Endocrinology 137, 72-77, 1996) are propagated in Dulbecco's modified Eagle medium supplemented with 10% foetal calf serum, non-essential amino acids, 100 U/ml penicillin, 100 mg/l streptomycin and 1 g/l geneticin (G418). For cyclic AMP determinations the Homogeneous Time-Resolved Fluoresce (HTRF) cAMP dynamic 2 kit (Cisbio International, France) was used as per manufacturers' instructions. CHO cells, previously cryopreserved, were thawed, centrifuged for 7 mins at 1200 rpm and resuspended in serum free media, then pipetted out onto clear bottomed black tissue culture treated 384-well microtitre plates (Corning Inc, US) at 2,000 cells per well. Compounds of the invention, prepared in DMSO, and subsequently diluted 50 fold in assay buffer (1× Hanks balanced salt solution, 0.2% (w/v) bovine serum albumin, 1.7 mM isobutylmethylxanthine and 10 mM Hepes, pH 7.4) are then added onto the cell containing plate where a further 2 fold dilution is performed and incubated for 15 min. Following incubation, buffer containing a 5 times final concentration of agonist is added to the plate and incubated for 30 min. Finally, d2 dye labelled cAMP and cryptate labeled anti-cAMP antibody, both made in lysis buffer, are added to the plate followed by a settling period of 1 hour. During the settling period cAMP produced by the cells competes with the d2 labelled cAMP for the anti-cAMP cryptate. The plate is read on the Pherastar (BMG, Germany). Increasing levels of endogenous cAMP produced by cells can be followed by a decrease of fluorescent signal and vice versa. Values represented by a change in arbitrary fluorescence units are converted into cAMP concentrations by use of a standard curve the reagents for which are supplied with the kit. Antagonist dose response curves (1 nM-30 μM) are constructed in the presence of 1 nM CRF. IC50 values of antagonists are calculated by fitting the percent inhibition of the effect of CRF by increasing concentrations of the antagonists. The fit is performed using the nonlinear logistic function of the Activitybase software package v 5.4.5.27 (IDBS, UK).

This is an account of results in patent US8273900B2, “Organic compounds” (Novartis AG, priority 2008, dated 2012).

Molecules are shown by their SMILES. Counter-ions that a name gives are not always drawn.

As a reminder, the IC50 is the concentration that inhibits the measured activity by half. Regarding `C[C@@H]1C[C@@H](NC(=O)c2cc(C(F)(F)F)ccc2Cl)CC[C@@H]1CNc1cc(-c2ccc(F)cc2)[nH]n1` (racemic) [Example 1.35a, (+/−)-2-Chloro-N-((1S,3R,4S)-4-{[5-(4-fluoro-phenyl)-1H-pyrazol-3-ylamino]-methyl}-3-methyl-cyclohexyl)-5-trifluoromethyl-benzamide], the IC50 amounted to 0.199 µM.

On to `Cc1cccnc1NC[C@H]1CC[C@H](NC(=O)c2cc(C(F)(F)F)ccc2Cl)CC1` [Example 1, Trans-2-Chloro-N-{4-[(3-methyl-pyridin-2-ylamino)-methyl]-cyclohexyl}-5-trifluoromethyl-benzamide], for which the IC50 was 0.038 µM.

Turning to `Cc1ncccc1NC[C@H]1CC[C@H](NC(=O)c2cc(C(F)(F)F)ccc2Cl)CC1` [Example 1.13, Trans-2-Chloro-N-{4-[(2-methyl-pyridin-3-ylamino)-methyl]-cyclohexyl}-5-trifluoromethyl-benzamide], the IC50 is 0.019 µM.

Turning to `Cc1nc(NC[C@H]2CC[C@H](NC(=O)c3cc(Cl)cnc3Cl)CC2)sc1C` [Example 1.18, Trans-2,5-Dichloro-N-{4-[(4,5-dimethyl-thiazol-2-ylamino)-methyl]-cyclohexyl}-nicotinamide], the IC50 turned out to be 0.031 µM.

For the compound `O=C(O)c1ccc(NC[C@H]2CC[C@H](NC(=O)c3cc(C(F)(F)F)ccc3Cl)CC2)nc1` [Example 1.33, Trans-6-{[4-(2-Chloro-5-trifluoromethyl-benzoylamino)-cyclohexylmethyl]-amino}-nicotinic acid], the IC50 is 6.42 µM.

As to `CN(C)Cc1ccc(NC[C@H]2CC[C@H](NC(=O)c3cc(C(F)(F)F)ccc3Cl)CC2)nc1` [Example 1.34, Trans-2-Chloro-N-{4-[(5-dimethylaminomethyl-pyridin-2-ylamino)-methyl]-cyclohexyl}-5-trifluoromethyl-benzamide hydrochloride], the IC50 was found to be 1.24 µM.

Regarding `Cc1cnc(NC[C@H]2CC[C@H](NC(=O)c3cc(C(F)(F)F)ccc3Cl)CC2)s1` [Example 2.5, Trans-2-Chloro-N-{4-[(5-methyl-thiazol-2-ylamino)-methyl]-cyclohexyl}-5-trifluoromethyl-benzamide], the IC50 came out at 0.036 µM.

As to `Cc1cc(C)nc(NC[C@H]2CC[C@H](NC(=O)c3cc(C(F)(F)F)ccc3Cl)CC2)c1` [Example 2.6, Trans-2-Chloro-N-{4-[(4,6-dimethyl-pyridin-2-ylamino)-methyl]-cyclohexyl}-5-trifluoromethyl-benzamide], the IC50 was determined as 0.215 µM.

Turning to `Cc1ccc(NC[C@H]2CC[C@H](NC(=O)c3cc(C(F)(F)F)ccc3Cl)CC2)nc1` [Example 2.8, Trans-2-Chloro-N-{4-[(5-methyl-pyridin-2-ylamino)-methyl]-cyclohexyl}-5-trifluoromethyl-benzamide], the IC50 was found to be 0.066 µM.

Take `Cc1cccc(NC[C@H]2CC[C@H](NC(=O)c3cc(C(F)(F)F)ccc3Cl)CC2)n1` [Example 2.9, Trans-2-Chloro-N-{4-[(6-methyl-pyridin-2-ylamino)-methyl]-cyclohexyl}-5-trifluoromethyl-benzamide]: the IC50 was determined as 0.039 µM.

Take `O=C(N[C@H]1CC[C@H](CNc2ccccc2Cl)CC1)c1cc(C(F)(F)F)ccc1Cl` [Example 2.26, Trans-2-Chloro-N-{4-[(2-chloro-phenylamino)-methyl]-cyclohexyl}-5-trifluoromethyl-benzamide]: the IC50 was determined as 0.063 µM.

Regarding `O=C(N[C@H]1CC[C@H](CNCc2cc(-c3ccccc3)on2)CC1)c1cc(C(F)(F)F)ccc1Cl` [Example 2.35, Trans-2-Chloro-N-(4-{[(5-phenyl-isoxazol-3-ylmethyl)-amino]-methyl}-cyclohexyl)-5-trifluoromethyl-benzamide], the IC50 amounted to 0.346 µM.

As for `Cc1nc(NC[C@H]2CC[C@H](NC(=O)c3cc(C(F)(F)F)ccc3Cl)CC2)sc1C` [Example 3, Trans-2-chloro-N-{4-[(4,5-dimethyl-thiazol-2-ylamino)-methyl]-cyclohexyl}-5-trifluoromethyl-benzamide], the IC50 stood at 0.06 µM.

`O=C(N[C@H]1CC[C@H](CNc2cc(-c3ccc(F)cc3)n[nH]2)CC1)c1cc(C(F)(F)F)ccc1Cl` [Example 4.11, Trans-2-Chloro-N-(4-{[5-(4-fluoro-phenyl)-2H-pyrazol-3-ylamino]-methyl}-cyclohexyl)-5-trifluoromethyl-benzamide]: the IC50 was 0.061 µM.

On to `CCCc1cc(NC[C@H]2CC[C@H](NC(=O)c3cc(C(F)(F)F)ccc3Cl)CC2)n[nH]1` [Example 4.15, Trans-2-Chloro-N-{4-[(5-propyl-1H-pyrazol-3-ylamino)-methyl]-cyclohexyl}-5-trifluoromethyl-benzamide], for which the IC50 was 0.061 µM.

Consider `CC(C)c1cc(NC[C@H]2CC[C@H](NC(=O)c3cc(C(F)(F)F)ccc3Cl)CC2)n[nH]1` [Example 4.16, Trans-2-Chloro-N-{4-[(5-isopropyl-1H-pyrazol-3-ylamino)-methyl]-cyclohexyl}-5-trifluoromethyl-benzamide], for which the IC50 was 0.063 µM.

As for `O=C(N[C@H]1CC[C@H](CNc2cccnc2)CC1)c1cc(C(F)(F)F)ccc1Cl` [Example 4.21, Trans-2-Chloro-N-[4-(pyridin-3-ylaminomethyl)-cyclohexyl]-5-trifluoromethyl-benzamide], the IC50 came out at 0.076 µM.

As to `O=C(N[C@H]1CC[C@H](CNc2ccccc2)CC1)c1cc(C(F)(F)F)ccc1Cl` [Example 4.33, Trans-2-Chloro-N-(4-phenylaminomethyl-cyclohexyl)-5-trifluoromethyl-benzamide], the IC50 was 0.05 µM.

On to `Cc1ncc(Cl)cc1C(=O)N[C@H]1CC[C@H](CNc2nc(C)c(C)s2)CC1` [Example 5.14, Trans-5-Chloro-N-{4-[(4,5-dimethyl-thiazol-2-ylamino)-methyl]-cyclohexyl}-2-methyl-nicotinamide], for which the IC50 came out at 0.066 µM.

With `O=C(N[C@H]1CC[C@H](Cn2ccc(N3CCNC3=O)n2)CC1)c1cc(C(F)(F)F)ccc1Cl` [Example 6, Trans-2-chloro-N-(4-((3-(2-oxoimidazolidin-1-yl)-1H-pyrazol-1-yl)methyl)cyclohexyl)-5-(trifluoromethyl)benzamide], the IC50 worked out at 0.09 µM.

As for `Cc1cc(C)n(C[C@H]2CC[C@H](NC(=O)c3cc(C(F)(F)F)ccc3Cl)CC2)n1` [Example 7, Trans-2-chloro-N-[4-(3,5-dimethyl-pyrazol-1-ylmethyl)-cyclohexyl]-5-trifluoromethyl-benzamide], the IC50 came to 0.022 µM.

For the compound `O=C(N[C@H]1CC[C@H](CNc2cc(C3CC3)n[nH]2)CC1)c1cc(C(F)(F)F)ccc1Cl` [Example 8, Trans-2-Chloro-N-{4-[(5-cyclopropyl-2H-pyrazol-3-ylamino)-methyl]-cyclohexyl}-5-trifluoromethyl-benzamide], the IC50 came to 0.047 µM.

Turning to `O=C(N[C@H]1CC[C@H](CNc2cccc(F)c2)CC1)c1cc(C(F)(F)F)ccc1Cl` [Example 9, Trans-2-Chloro-N-{4-[(3-fluoro-phenylamino)-methyl]-cyclohexyl}-5-trifluoromethyl-benzamide], the IC50 stood at 0.05 µM.

As for `Cc1cncc(NC[C@H]2CC[C@H](NC(=O)c3cc(C(F)(F)F)ccc3Cl)CC2)c1` [Example 10, Trans-2-chloro-N-(4-((5-methylpyridin-3-ylamino)methyl)-cyclohexyl)-5-(trifluoromethyl)benzamide], the IC50 turned out to be 0.041 µM.

For the compound `CN(Cc1cc(-c2ccccc2)n[nH]1)C[C@H]1CC[C@H](NC(=O)c2cc(Cl)ccc2Cl)CC1` [Example 11, Trans-2,5-Dichloro-N-(4-{[methyl-(5-phenyl-2H-pyrazol-3-ylmethyl)amino]-methyl}-cyclohexyl)-benzamide], the IC50 came to 0.174 µM.

With `O=C(N[C@H]1CC[C@H](CNc2ccccc2)CC1)c1cccc(Cl)c1` [Example 12, Trans-3-Chloro-N-(4-phenylaminomethyl-cyclohexyl)-benzamide], the IC50 was 0.137 µM.

In the case of `O=C(N[C@H]1CC[C@H](CNc2cccc3ncccc23)CC1)c1cccc(C(F)(F)F)c1` [Example 13, Trans-N-[4-(Quinolin-5-ylaminomethyl)-cyclohexyl]-3-trifluoromethyl-benzamide], the IC50 came to 0.07 µM.
